Laboratory results taken from ChEMBL document CHEMBL4304773, “Nitroimidazole-containing compounds and their antibacterial and antitubercular activities” (2019).
Converted amounts (≈) assume the structure as drawn. Each block holds one compound with its values, some of them ahead of it.

What was measured:
Format in all cases: functional
[1] = tested on: Acinetobacter baumannii; assay: Antibacterial activity against Acinetobacter baumannii
[2] = tested on: Enterococcus faecalis; assay: Antibacterial activity against Enterococcus faecalis
[3] = tested on: Pseudomonas aeruginosa; assay: Antibacterial activity against Pseudomonas aeruginosa ATCC 27853
[4] = tested on: Staphylococcus aureus; assay: Antibacterial activity against Staphylococcus aureus ATCC 29213
[5] = tested on: Escherichia coli; assay: Antibacterial activity against Escherichia coli ATCC 25922
[6] = tested on: Staphylococcus aureus; assay: Antibacterial activity against methicillin-resistant Staphylococcus aureus N315
[7] = tested on: Pseudomonas aeruginosa; assay: Antibacterial activity against Pseudomonas aeruginosa
[8] = tested on: Klebsiella pneumoniae; assay: Antibacterial activity against Klebsiella pneumoniae
[9] = tested on: Staphylococcus aureus; assay: Antibacterial activity against Staphylococcus aureus ATCC 25923
[10] = tested on: Escherichia coli; assay: Antibacterial activity against Escherichia coli
[11] = tested on: Escherichia coli; assay: Antibacterial activity against Escherichia coli infected in mouse
[12] = tested on: Streptococcus pyogenes; assay: Antibacterial activity against Streptococcus pyogenes
[13] = tested on: Helicobacter pylori; assay: Antibacterial activity against Helicobacter pylori NCTC 11637
[14] = tested on: Helicobacter pylori; assay: Antibacterial activity against Helicobacter pylori
[15] = tested on: Staphylococcus aureus; assay: Antibacterial activity against Staphylococcus aureus
[16] = tested on: Pseudomonas aeruginosa; assay: Antibacterial activity against Pseudomonas aeruginosa ATCC 27853 after 24 hrs by NCCLS method; conditions: ATCC 27853, 24 h
[17] = tested on: Bacillus subtilis; assay: Antibacterial activity against Bacillus subtilis ATCC 530 after 24 hrs by NCCLS method; conditions: ATCC 530, 24 h
[18] = tested on: Staphylococcus aureus; assay: Antibacterial activity against Staphylococcus aureus ATCC 25923 after 24 hrs by NCCLS method; conditions: ATCC 25923, 24 h
[19] = tested on: Escherichia coli; assay: Antibacterial activity against Escherichia coli ATCC 25922 after 24 hrs by NCCLS method; conditions: ATCC 25922, 24 h

Compound: C#CCN1CCN(c2ccc3c4c(cccc24)C(=O)N(CC(O)Cn2c([N+](=O)[O-])cnc2C)C3=O)CC1 (centres undefined)
- MIC [1]: 13 to 1020 µM (≈ 6.53 to 513 µg/mL)
- MIC [2]: 13 to 1020 µM (≈ 6.53 to 513 µg/mL)
- MIC [3]: 13 to 1020 µM (≈ 6.53 to 513 µg/mL)
- MIC [4]: 13 to 1020 µM (≈ 6.53 to 513 µg/mL)
- MIC [5]: 13 to 1020 µM (≈ 6.53 to 513 µg/mL)
- MIC [6]: 13 to 1020 µM (≈ 6.53 to 513 µg/mL)
- MIC [7]: 13 to 1020 µM (≈ 6.53 to 513 µg/mL)
- MIC [8]: 13 to 1020 µM (≈ 6.53 to 513 µg/mL)
- MIC [9]: 13 to 1020 µM (≈ 6.53 to 513 µg/mL)
- MIC [10]: 13 to 1020 µM (≈ 6.53 to 513 µg/mL)

Compound: Cc1ncc([N+](=O)[O-])n1CC(O)CN1C(=O)c2cccc3c(N4CCN(CCO)CC4)ccc(c23)C1=O (centres undefined)
- MIC [1]: 13 to 1020 µM (≈ 6.61 to 519 µg/mL)
- MIC [2]: 13 to 1020 µM (≈ 6.61 to 519 µg/mL)
- MIC [3]: 13 to 1020 µM (≈ 6.61 to 519 µg/mL)
- MIC [4]: 13 to 1020 µM (≈ 6.61 to 519 µg/mL)
- MIC [5]: 13 to 1020 µM (≈ 6.61 to 519 µg/mL)
- MIC [6]: 13 to 1020 µM (≈ 6.61 to 519 µg/mL)
- MIC [7]: 13 to 1020 µM (≈ 6.61 to 519 µg/mL)
- MIC [8]: 13 to 1020 µM (≈ 6.61 to 519 µg/mL)
- MIC [9]: 13 to 1020 µM (≈ 6.61 to 519 µg/mL)
- MIC [10]: 13 to 1020 µM (≈ 6.61 to 519 µg/mL)

- MIC [12]: 189 µM (≈ 62.6 µg/mL)
Compound: O=C(O)c1cn(C2CC2)c2cc(N3CCNCC3)c(F)cc2c1=O [CIPROFLOXACIN]
- ED50 [11]: 4.53 mg/kg

Compound: CCOC(=O)c1cn(CC)c2cc(N3CCN(CCn4c([N+](=O)[O-])cnc4C)CC3)c(F)cc2c1=O
- ED50 [11]: 3.5 to 13.2 mg/kg

Compound: Cc1ncc([N+](=O)[O-])n1CCNCc1no[n+]([O-])c1C(N)=O
- MIC90 [13]: 0.5 to 32 µg/mL (≈ 1.61 to 103 µM)
- MIC90 [14]: 0.5 to 32 µg/mL (≈ 1.61 to 103 µM)

Compound: Cc1ncc([N+](=O)[O-])n1CC(O)CN1C(=O)c2cccc3c(N4CCCC4)ccc(c23)C1=O (centres undefined)
- MIC [1]: 69 to 1140 µM (≈ 31 to 512 µg/mL)
- MIC [2]: 69 to 1140 µM (≈ 31 to 512 µg/mL)
- MIC [3]: 69 to 1140 µM (≈ 31 to 512 µg/mL)
- MIC [4]: 69 to 1140 µM (≈ 31 to 512 µg/mL)
- MIC [5]: 69 to 1140 µM (≈ 31 to 512 µg/mL)
- MIC [6]: 69 to 1140 µM (≈ 31 to 512 µg/mL)
- MIC [7]: 69 to 1140 µM (≈ 31 to 512 µg/mL)
- MIC [8]: 69 to 1140 µM (≈ 31 to 512 µg/mL)
- MIC [9]: 69 to 1140 µM (≈ 31 to 512 µg/mL)
- MIC [10]: 69 to 1140 µM (≈ 31 to 512 µg/mL)

- MIC [15]: 184 to 2890 µM (≈ 63.7 to 1000 µg/mL)
- MIC [12]: 184 to 2890 µM (≈ 63.7 to 1000 µg/mL)
Compound: Cc1nc([N+](=O)[O-])cn1Cc1nn(CNc2ccccc2)c(=S)o1

- MIC [16]: 1.56 to 3.12 µg/mL (≈ 3.23 to 6.45 µM)
- MIC [17]: 1.56 to 3.12 µg/mL (≈ 3.23 to 6.45 µM)
- MIC [18]: 1.56 to 3.12 µg/mL (≈ 3.23 to 6.45 µM)
- MIC [19]: 1.56 to 3.12 µg/mL (≈ 3.23 to 6.45 µM)
Compound: NC[C@H]1O[C@H](O[C@H]2[C@H](O)[C@@H](O[C@H]3O[C@H](CO)[C@@H](O)[C@H](N)[C@H]3O)[C@H](N)C[C@@H]2N)[C@H](N)[C@@H](O)[C@@H]1O [BEKANAMYCIN]

- MIC [15]: 184 to 2890 µM (≈ 67 to 1050 µg/mL)
- MIC [12]: 184 to 2890 µM (≈ 67 to 1050 µg/mL)
Compound: Cc1nc([N+](=O)[O-])cn1Cc1nn(CNc2ccc(F)cc2)c(=S)o1

Compound: Cc1nonc1CNCCn1c([N+](=O)[O-])cnc1C
- MIC90 [13]: 0.5 to 32 µg/mL (≈ 1.88 to 120 µM)
- MIC90 [14]: 0.5 to 32 µg/mL (≈ 1.88 to 120 µM)

- MIC [16]: 3.12 to 50 µg/mL (≈ 6.2 to 99.3 µM)
- MIC [17]: 3.12 to 50 µg/mL (≈ 6.2 to 99.3 µM)
- MIC [18]: 3.12 to 50 µg/mL (≈ 6.2 to 99.3 µM)
- MIC [19]: 3.12 to 50 µg/mL (≈ 6.2 to 99.3 µM)
Compound: COc1ccc(Oc2c(/C=N/NC(=O)Cn3c([N+](=O)[O-])cnc3C)c(C)nn2-c2ccc(C)cc2)cc1

- MIC [16]: 3.12 to 50 µg/mL (≈ 6.14 to 98.4 µM)
- MIC [17]: 3.12 to 50 µg/mL (≈ 6.14 to 98.4 µM)
- MIC [18]: 3.12 to 50 µg/mL (≈ 6.14 to 98.4 µM)
- MIC [19]: 3.12 to 50 µg/mL (≈ 6.14 to 98.4 µM)
Compound: Cc1ccc(-n2nc(C)c(/C=N/NC(=O)Cn3c([N+](=O)[O-])cnc3C)c2Oc2ccc(Cl)cc2)cc1

- MIC [15]: 184 to 2890 µM (≈ 77.7 to 1220 µg/mL)
- MIC [12]: 184 to 2890 µM (≈ 77.7 to 1220 µg/mL)
Compound: Cc1nc([N+](=O)[O-])cn1Cc1nn(CNc2ccc(-c3ccccc3)cc2)c(=S)o1

- MIC [15]: 184 to 2890 µM (≈ 68.9 to 1080 µg/mL)
- MIC [12]: 184 to 2890 µM (≈ 68.9 to 1080 µg/mL)
Compound: CCc1ccc(NCn2nc(Cn3cc([N+](=O)[O-])nc3C)oc2=S)cc1

Compound: C=CCN1CCN(c2ccc3c4c(cccc24)C(=O)N(CC(O)Cn2c([N+](=O)[O-])cnc2C)C3=O)CC1 (centres undefined)
- MIC [1]: 13 to 1020 µM (≈ 6.56 to 515 µg/mL)
- MIC [2]: 13 to 1020 µM (≈ 6.56 to 515 µg/mL)
- MIC [3]: 13 to 1020 µM (≈ 6.56 to 515 µg/mL)
- MIC [4]: 13 to 1020 µM (≈ 6.56 to 515 µg/mL)
- MIC [5]: 13 to 1020 µM (≈ 6.56 to 515 µg/mL)
- MIC [6]: 13 to 1020 µM (≈ 6.56 to 515 µg/mL)
- MIC [7]: 13 to 1020 µM (≈ 6.56 to 515 µg/mL)
- MIC [8]: 13 to 1020 µM (≈ 6.56 to 515 µg/mL)
- MIC [9]: 13 to 1020 µM (≈ 6.56 to 515 µg/mL)
- MIC [10]: 13 to 1020 µM (≈ 6.56 to 515 µg/mL)

Compound: CCN1CCN(c2ccc3c4c(cccc24)C(=O)N(CC(O)Cn2c([N+](=O)[O-])cnc2C)C3=O)CC1 (centres undefined)
- MIC [1]: 13 to 1020 µM (≈ 6.4 to 502 µg/mL)
- MIC [2]: 13 to 1020 µM (≈ 6.4 to 502 µg/mL)
- MIC [3]: 13 to 1020 µM (≈ 6.4 to 502 µg/mL)
- MIC [4]: 13 to 1020 µM (≈ 6.4 to 502 µg/mL)
- MIC [5]: 13 to 1020 µM (≈ 6.4 to 502 µg/mL)
- MIC [6]: 13 to 1020 µM (≈ 6.4 to 502 µg/mL)
- MIC [7]: 13 to 1020 µM (≈ 6.4 to 502 µg/mL)
- MIC [8]: 13 to 1020 µM (≈ 6.4 to 502 µg/mL)
- MIC [9]: 13 to 1020 µM (≈ 6.4 to 502 µg/mL)
- MIC [10]: 13 to 1020 µM (≈ 6.4 to 502 µg/mL)

Compound: CCOC(=O)c1cn(C2CC2)c2cc(N3CCN(CCn4c([N+](=O)[O-])cnc4C)CC3)c(F)cc2c1=O
- ED50 [11]: 3.5 to 13.2 mg/kg

Compound: Cc1ncc([N+](=O)[O-])n1CCN1CCN(c2cc3c(cc2F)c(=O)c(C(=O)O)cn3C2CC2)CC1
- ED50 [11]: 2.56 to 3.88 mg/kg

Compound: COC(=O)c1cn(C2CC2)c2cc(N3CCN(CCn4c([N+](=O)[O-])cnc4C)CC3)c(F)cc2c1=O
- ED50 [11]: 3.5 to 13.2 mg/kg

- MIC [16]: 3.12 to 50 µg/mL (≈ 6.35 to 102 µM)
- MIC [17]: 3.12 to 50 µg/mL (≈ 6.35 to 102 µM)
- MIC [18]: 3.12 to 50 µg/mL (≈ 6.35 to 102 µM)
- MIC [19]: 3.12 to 50 µg/mL (≈ 6.35 to 102 µM)
Compound: Cc1ccc(-n2nc(C)c(/C=N/NC(=O)Cn3c([N+](=O)[O-])cnc3C)c2Oc2ccc(F)cc2)cc1

Compound: CCn1cc(C(=O)O)c(=O)c2cc(F)c(N3CCN(CCn4c([N+](=O)[O-])cnc4C)CC3)nc21
- ED50 [11]: 3.5 to 13.2 mg/kg

Compound: CCOC(=O)c1cn(CC)c2nc(N3CCN(CCn4c([N+](=O)[O-])cnc4C)CC3)c(F)cc2c1=O
- ED50 [11]: 3.5 to 13.2 mg/kg

Compound: Cc1ncc([N+](=O)[O-])n1CCNCc1no[n+]([O-])c1C
- MIC90 [13]: 0.5 to 32 µg/mL (≈ 1.77 to 113 µM)
- MIC90 [14]: 0.5 to 32 µg/mL (≈ 1.77 to 113 µM)

Compound: CCn1cc(C(=O)O)c(=O)c2cc(F)c(N3CCNCC3)nc21 [ENOXACIN]
- ED50 [11]: 4.22 mg/kg
